Measurements published in US20190216767A1, “TOPICAL THERAPY FOR THE TREATMENT OF SKIN KERATOSES USING NANOPARTICLES OF TAXANES” (DFB SORIA, LLC, priority 2017, published 2019).
Where two headings read alike, the source gives them in different places.

Columns and labels:
[1] = methanol/water 15/85 (v/v), 37° C., pH 7, 75 rpm, cited from earlier work
[2] = Particle size of paclitaxel nanoparticles lots (ACCUSIZER 780); format: physicochemical; conditions: nanoparticle API lot
Method: Max. Concentration: 9000 particles/mL, No. containers: 1, Sensor Range: Summation, Lower Detection Limit: 0.5 μm, Flow Rate: 30 mL/min, No. Analysis pulls: 4, Time between pulls: 1 sec, Pull volume: 10 mL, Tare Volume: 1 mL, Prime volume: 1 mL, Include First Pull: Not Selected.
Vortexed for 5-10 minutes and sonicated in a water batch for 1 minute.
Filled a plastic bottle with filtered (0.22 μm) 0.1% w/w SDS solution and analyzed the Background.

[3] = Specific surface area (SSA) by BET isotherm; format: physicochemical; conditions: BET isotherm method, nanoparticle API lot
Excerpt: (§1) Taxane nanoparticles produced by various supercritical carbon dioxide particle size reduction methods can have unique physical characteristics as compared to taxane nanoparticles produced by conventional particle size reduction methods using physical impacting or grinding, e.g., wet or dry milling, micronizing, disintegrating, comminuting, microfluidizing, or pulverizing. […] This bulk density range is generally lower than the bulk density of taxane particles produced by conventional means, and the SSA is generally higher than the SSA of taxane particles produced by conventional means. […] As used herein, the “specific surface area (SSA)” is the total surface area of the taxane nanoparticle per unit of taxane mass as measured by the Brunauer-Emmett-Teller (“BET”) isotherm by the following method: a known mass between 200 and 300 mg of the analyte is added to a 30 mL sample tube. […] The automated test is then carried out using the BETWIN® software package and the surface area of each sample is subsequently calculated. The bulk density measurement can be conducted by pouring the taxane nanoparticles into a graduated cylinder without tapping at room temperature, measuring the mass and volume, and calculating the bulk density.

[4] = Bulk density (not tapped); format: physicochemical; conditions: nanoparticle API lot
Excerpt: as §1

[5] = Observation of paclitaxel nanoparticle crystal growth by light microscopy; format: physicochemical
[6] = system: Göttingen minipigs; test: Dermal toxicity study (GLP, topical daily for 28 days); format: in vivo; conditions: topical daily for 28 days, 0.3, 1.0 and 3%
Method: The GLP-compliant study was conducted in Göttingen minipigs to characterize the toxicity of the formulations applied topically to 10% body surface area daily for 28 days. […] Reversibility of findings was also evaluated following a 2-week recovery period. Parameters evaluated included clinical observations, mortality and moribundity checks, dermal scoring, body weight, food consumption, eye examinations, test site photographs, electrocardiology, clinical pathology, bioanalysis and toxicokinetic evaluation, organ weights, macroscopic pathology and histopathology. There were no formulation-related effects on survival, clinical signs, dermal irritation, body weights, body weight gains, food consumption, ophthalmic findings, or cardiology parameters.

[7] = Solubility of paclitaxel in various solvents (HPLC); format: physicochemical
Method: Step “d” was continued for each vial for a total of 48 hours.

[8] = listed as paclitaxel nanoparticles lot used in the formulas listed in Table 3
[9] = listed as paclitaxel nanoparticles lot used in the formulas listed in Tables 16-19
[10] = in Aluminum sulfate 0.1-0.2% in water, @ 7 days, RT
[11] = in Ammonium lauryl sulfate 2% in water, @ 3 days, RT
[12] = in Benzalkonium chloride (50%) 2% in water, @ 7 days & 21 days, RT
[13] = in CARBOPOL ULTREZ 10 (with Ammonium hydroxide as neutralizer) 0.5% in water, @ 8 days & 21 days, RT
[14] = in Castor Oil 100%, @ 24 hrs & 9 days, RT
[15] = in Dimethicone, 1000 cSt 100%, @ 24 hrs & 6 days, RT
[16] = in FOMBLIN HC04 100%, @ 4, 7 & 13 days, RT
[17] = in Hydroxyethyl cellulose 1% in water, @ 7 days, RT
[18] = in Hydroxypropyl methylcellulose 1% in water, @ 3 days, RT
[19] = in Lecithin 1% in water, @ 24 hrs, RT
[20] = in Light Mineral Oil NF 100%, @ 3 days, RT & 40 C.
[21] = in Magnesium nitrate 5% in water, @ 3 days, RT
[22] = in Mannitol 5% in water, @ 7 days, RT
[23] = in Mineral Oil USP (heavy) 100%, @ 3 days, RT & 40 C.
[24] = in PEG 400 10% in water, @ 22 days, RT & 60 C.
[25] = in Poloxamer 188 2% in water, @ 7 days, RT
[26] = in Poloxamer 407 2% in water, @ 5 & 7 days, RT
[27] = in Polyoxyl 40 Hydrogenated Castor Oil (KOLLIPHOR RH40) 1% in water, @ 6 days, RT
[28] = in Polysorbate 80 0.5% in Saline, @ 7 days, RT & 60 C.
[29] = in Polysorbate 80 0.5% in water, @ 22 days, RT & 60 C.
[30] = in Povidone 1% in water, @ 7 days & 21 days, RT
[31] = in Proline 3% in water, @ 7 days, RT
[32] = in Purified Water 100%, @ 5 days, RT & 60 C.
[33] = in ST-Cyclomethicone 5 NF 100%, @ 24 hrs & 13 days, RT
[34] = in Saline 0.9% NaCl in water, @ 7 days, RT & 60 C.
[35] = in Sodium lauryl sulfate 2% in water, @ 7 days, RT
[36] = in Sodium phosphate monobasic 0.75% in water, @ 7 days, RT
[37] = in Sorbitol 5% in water, @ 7 days, RT
[38] = in Vitamin E TPGS 0.5% in water, @ 6 days, RT
[39] = in Zinc acetate […] in water, @ 7 days, RT

CC(=O)O[C@@]12CO[C@@H]1C[C@H](O)[C@@]1(C)C(=O)[C@H](O)C3=C(C)[C@@H](OC(=O)[C@H](O)[C@@H](NC(=O)OC(C)(C)C)c4ccccc4)C[C@@](O)([C@@H](OC(=O)c4ccccc4)[C@H]21)C3(C)C [Docetaxel nanoparticles, docetaxel]
dissolution rate, % dissolved in 30 minutes ([1]; nanoparticles made by milling): 9%
dissolution rate, % dissolved in 30 minutes ([1]; nanoparticles made by the supercritical carbon dioxide method): 27%

CC(=O)O[C@H]1C(=O)[C@@]2(C)[C@H]([C@H](OC(=O)c3ccccc3)[C@]3(O)C[C@H](OC(=O)[C@H](O)[C@@H](NC(=O)c4ccccc4)c4ccccc4)C(C)=C1C3(C)C)[C@]1(OC(C)=O)CO[C@@H]1C[C@@H]2O [Paclitaxel nanoparticles lot used in formulas listed in Tabl] [listing 1 of 2 here]
Particle size (number-weighted differential distribution) Mean [2]: 0.861 μm
Particle size (number-weighted differential distribution) Median [2]: 0.710 μm
Particle size (number-weighted differential distribution) Mode [2]: 0.572 μm
specific surface area (SSA) [3, 8]: 41.24 m^2/g
bulk density (not-tapped) [4, 8]: 0.05 g/mL

CC(=O)O[C@H]1C(=O)[C@@]2(C)[C@H]([C@H](OC(=O)c3ccccc3)[C@]3(O)C[C@H](OC(=O)[C@H](O)[C@@H](NC(=O)c4ccccc4)c4ccccc4)C(C)=C1C3(C)C)[C@]1(OC(C)=O)CO[C@@H]1C[C@@H]2O [Paclitaxel nanoparticles lot used in formulas listed in Tabl] [listing 2 of 2 here]
Particle size (number-weighted differential distribution) Mean [2]: 0.83 μm
specific surface area (SSA) [3, 9]: 26.72 m^2/g
bulk density (not-tapped) [4, 9]: 0.09 g/mL

CC(=O)O[C@H]1C(=O)[C@@]2(C)[C@H]([C@H](OC(=O)c3ccccc3)[C@]3(O)C[C@H](OC(=O)[C@H](O)[C@@H](NC(=O)c4ccccc4)c4ccccc4)C(C)=C1C3(C)C)[C@]1(OC(C)=O)CO[C@@H]1C[C@@H]2O [Paclitaxel nanoparticles, paclitaxel]
Crystal size (visual observation by light microscopy) [5, 10]: > 5 μm
Needle shaped crystals observed? (visual observation by light microscopy) [5, 10]: Yes
Crystal size (visual observation by light microscopy) [5, 11]: > 5 μm
Needle shaped crystals observed? (visual observation by light microscopy) [5, 11]: Yes
Crystal size (visual observation by light microscopy) [5, 12]: < 5 μm
Needle shaped crystals observed? (visual observation by light microscopy) [5, 12]: No
Crystal size (visual observation by light microscopy) [5, 13]: < 5 μm
Needle shaped crystals observed? (visual observation by light microscopy) [5, 13]: No
Crystal size (visual observation by light microscopy) [5, 14]: < 5 μm
Needle shaped crystals observed? (visual observation by light microscopy) [5, 14]: No
Crystal size (visual observation by light microscopy) [5, 15]: < 5 μm
Needle shaped crystals observed? (visual observation by light microscopy) [5, 15]: No
Crystal size (visual observation by light microscopy) [5, 16]: < 5 μm
Needle shaped crystals observed? (visual observation by light microscopy) [5, 16]: No
Crystal size (visual observation by light microscopy) [5, 17]: > 5 μm
Needle shaped crystals observed? (visual observation by light microscopy) [5, 17]: Yes
Crystal size (visual observation by light microscopy) [5, 18]: > 5 μm
Needle shaped crystals observed? (visual observation by light microscopy) [5, 18]: Yes
Crystal size (visual observation by light microscopy) [5, 19]: > 10 μm
Needle shaped crystals observed? (visual observation by light microscopy) [5, 19]: Yes
Crystal size (visual observation by light microscopy) [5, 20]: < 5 μm
Needle shaped crystals observed? (visual observation by light microscopy) [5, 20]: No
Crystal size (visual observation by light microscopy) [5, 21]: > 5 μm
Needle shaped crystals observed? (visual observation by light microscopy) [5, 21]: Yes
Crystal size (visual observation by light microscopy) [5, 22]: > 5 μm
Needle shaped crystals observed? (visual observation by light microscopy) [5, 22]: Yes
Crystal size (visual observation by light microscopy) [5, 23]: < 5 μm
Needle shaped crystals observed? (visual observation by light microscopy) [5, 23]: No
Crystal size (visual observation by light microscopy) [5, 24]: > 5 μm
Needle shaped crystals observed? (visual observation by light microscopy) [5, 24]: Yes
Crystal size (visual observation by light microscopy) [5, 25]: > 5 μm
Needle shaped crystals observed? (visual observation by light microscopy) [5, 25]: Yes
Crystal size (visual observation by light microscopy) [5, 26]: < 5 μm
Needle shaped crystals observed? (visual observation by light microscopy) [5, 26]: No
Crystal size (visual observation by light microscopy) [5, 27]: < 5 μm
Needle shaped crystals observed? (visual observation by light microscopy) [5, 27]: Yes
Crystal size (visual observation by light microscopy) [5, 28]: > 5 μm
Needle shaped crystals observed? (visual observation by light microscopy) [5, 28]: Yes
Crystal size (visual observation by light microscopy) [5, 29]: < 5 μm
Needle shaped crystals observed? (visual observation by light microscopy) [5, 29]: Yes
Crystal size (visual observation by light microscopy) [5, 30]: < 5 μm
Needle shaped crystals observed? (visual observation by light microscopy) [5, 30]: Yes
Crystal size (visual observation by light microscopy) [5, 31]: > 5 μm
Needle shaped crystals observed? (visual observation by light microscopy) [5, 31]: Yes
Crystal size (visual observation by light microscopy) [5, 32]: > 5 μm
Needle shaped crystals observed? (visual observation by light microscopy) [5, 32]: Yes
Crystal size (visual observation by light microscopy) [5, 33]: < 5 μm
Needle shaped crystals observed? (visual observation by light microscopy) [5, 33]: No
Crystal size (visual observation by light microscopy) [5, 34]: > 10 μm
Needle shaped crystals observed? (visual observation by light microscopy) [5, 34]: Yes
Crystal size (visual observation by light microscopy) [5, 35]: > 5 μm
Needle shaped crystals observed? (visual observation by light microscopy) [5, 35]: Yes
Crystal size (visual observation by light microscopy) [5, 36]: > 5 μm
Needle shaped crystals observed? (visual observation by light microscopy) [5, 36]: Yes
Crystal size (visual observation by light microscopy) [5, 37]: > 5 μm
Needle shaped crystals observed? (visual observation by light microscopy) [5, 37]: Yes
Crystal size (visual observation by light microscopy) [5, 38]: < 5 μm
Needle shaped crystals observed? (visual observation by light microscopy) [5, 38]: Yes
Crystal size (visual observation by light microscopy) [5, 39]: > 5 μm
Needle shaped crystals observed? (visual observation by light microscopy) [5, 39]: Yes
crystal growth of paclitaxel nanoparticles ([5]; in any of the hydrophobic carriers): did not grow
crystal growth of paclitaxel nanoparticles ([5]; in aqueous solutions of benzalkonium chloride, CARBOPOL ULTREZ 10, or poloxamer 407): did not grow
effect of the presence of the paclitaxel nanoparticles in the formulations on dermal irritation [6]: negligible effect

CC(=O)O[C@H]1C(=O)[C@@]2(C)[C@H]([C@H](OC(=O)c3ccccc3)[C@]3(O)C[C@H](OC(=O)[C@H](O)[C@@H](NC(=O)c4ccccc4)c4ccccc4)C(C)=C1C3(C)C)[C@]1(OC(C)=O)CO[C@@H]1C[C@@H]2O [Paclitaxel, paclitaxel]
Paclitaxel Solubility at RT ([7]; in Benzyl Alcohol, NF): 17.02% w/w
Paclitaxel Solubility at RT ([7]; in Diethylene Glycol Monoethyl Ether, NF (TRANSCUTOL P)): 33.10% w/w
Paclitaxel Solubility at RT ([7]; in Diisopropyl Adipate (CERAPHYL 230)): 3.51% w/w
Paclitaxel Solubility at RT ([7]; in Dimethyl Isosorbide): 38.22% w/w
Paclitaxel Solubility at RT ([7]; in Hexylene Glycol): 4.07% w/w
Paclitaxel Solubility at RT ([7]; in Isopropyl Myristate, NF): 0.048% w/w
Paclitaxel Solubility at RT ([7]; in Medium Chain Triglycerides, NF): 0.32% w/w
Paclitaxel Solubility at RT ([7]; in Mineral Oil, USP (heavy)): 0.3 ppm
Paclitaxel Solubility at RT ([7]; in Polyethylene Glycol 400, NF): 22.30% w/w
Paclitaxel Solubility at RT ([7]; in Propylene Carbonate): 4.74% w/w
Paclitaxel Solubility at RT ([7]; in Propylene Glycol, USP): 0.88% w/w
Paclitaxel Solubility at RT ([7]; in Purified Water, USP): <0.05 ppm
Paclitaxel Solubility at RT ([7]; in Purified Water, USP, listed as paclitaxel): less than 0.05 ppm
Paclitaxel Solubility at RT ([7]; in Super Refined Oleic Acid, NF): 0.041% w/w
Paclitaxel Solubility at RT ([7]; in Super Refined Oleyl Alcohol, NF): 0.38% w/w
